Data taken from ChEMBL document CHEMBL5058564, “EUbOPEN Chemogenomics Library 2 (Incucyte)” (2022).

Tests used:
Format in all cases: toxicity, cell-based
U2OS = test: Incucyte cell viability with U2OS; details: human, 10 µM, compound concentration 10 uM
HEK-293T = test: Incucyte cell viability with HEK293T; details: human, 10 µM, compound concentration 10 uM
Fibroblast = test: Incucyte cell viability with human fibroblast; details: 10 µM, compound concentration 10 uM
[1] = 0 h, replicate number 1, timepoint 0 hours
[2] = 0 h, replicate number 2, timepoint 0 hours
[3] = 6 h, replicate number 2, timepoint 6 hours
[4] = 12 h, replicate number 2, timepoint 12 hours
[5] = 18 h, replicate number 2, timepoint 18 hours
[6] = 24 h, replicate number 2, timepoint 24 hours
[7] = 6 h, replicate number 1, timepoint 6 hours
[8] = 12 h, replicate number 1, timepoint 12 hours
[9] = 18 h, replicate number 1, timepoint 18 hours
[10] = 24 h, replicate number 1, timepoint 24 hours
Also: unitless GR value; below 1 slowed growth and below 0 cell loss.

Structure (SMILES) | Growth Rate (U2OS; [1]) | Growth Rate (U2OS; [2]) | Growth Rate (U2OS; [3]) | Growth Rate (U2OS; [4]) | Growth Rate (U2OS; [5]) | Growth Rate (U2OS; [6]) | Growth Rate (HEK-293T; [7]) | Growth Rate (HEK-293T; [3]) | Growth Rate (HEK-293T; [8]) | Growth Rate (HEK-293T; [4]) | Growth Rate (HEK-293T; [9]) | Growth Rate (HEK-293T; [5]) | Growth Rate (HEK-293T; [10]) | Growth Rate (HEK-293T; [6]) | Growth Rate (Fibroblast; [1]) | Growth Rate (Fibroblast; [2]) | Growth Rate (Fibroblast; [7]) | Growth Rate (Fibroblast; [3]) | Growth Rate (Fibroblast; [8]) | Growth Rate (Fibroblast; [4]) | also measured
C[C@@H]1CN(Cc2ccc(F)cc2)CCN1C(=O)COc1ccc(Cl)cc1NC(N)=O [BX 471 FREE BASE] | -0.96 | -1 | 0.94 | 0.91 | 0.79 | 0.89 | -0.13 | 0.4 | -0.03 | 0.27 | 0.11 | 0.4 | 0.18 | 0.33 | 0.82 | 0.24 | -0.16 | 0.36 | -0.14 | 0.49 | Growth Rate (Fibroblast; [9]): -0.19; Growth Rate (Fibroblast; [5]): 0.85; Growth Rate (Fibroblast; [10]): -0.14; Growth Rate (Fibroblast; [6]): 0.72
C=CCN1C[C@H](C(=O)N(CCCN(C)C)C(=O)NCC)C[C@@H]2c3cccc4[nH]cc(c34)C[C@H]21 [CABERGOLINE] |  | -1 |  |  |  |  | 0.78 | 0.46 | 0.93 |  |  |  |  |  | -0.05 | 0.7 | 0.44 | 1 | 0.91 |  | 
CC[C@@]1(O)C(=O)OCc2c1cc1n(c2=O)Cc2cc3ccccc3nc2-1 [CAMPTOTHECIN] | -0.11 | -0.34 | 0.82 | 0.64 | 0.33 | 0.2 | -0.29 |  | 0.88 |  |  |  | 0.65 | 0.41 | -0.02 | 0.11 | 1 |  |  |  | Growth Rate (U2OS; [7]): 0.7; Growth Rate (U2OS; [8]): 0.75; Growth Rate (U2OS; [9]): 0.59; Growth Rate (U2OS; [10]): 0.48; Growth Rate (HEK-293T; [1]): -0.84; Growth Rate (HEK-293T; [2]): 0.83
N#Cc1c(N)nc(SCc2csc(-c3ccc(Cl)cc3)n2)c(C#N)c1-c1ccc(OCCO)cc1 [CAPADENOSON] | 0.75 | 0.97 |  | 0.81 | 0.87 | 0.83 | 0.99 | 0.69 | 0.54 | 0.46 | 0.36 | 0.44 | 0.31 | 0.41 | 0.09 | -0.41 | -0.5 | 0.85 | -0.47 | 0.37 | Growth Rate (U2OS; [7]): 0.52; Growth Rate (U2OS; [8]): 0.6; Growth Rate (U2OS; [9]): 0.66; Growth Rate (U2OS; [10]): 0.79; Growth Rate (HEK-293T; [1]): 0.41; Growth Rate (HEK-293T; [2]): 0.32; Growth Rate (Fibroblast; [9]): -0.41; Growth Rate (Fibroblast; [5]): 0.66; Growth Rate (Fibroblast; [10]): -0.34; Growth Rate (Fibroblast; [6]): 0.54
Cc1cc(Nc2ncc(Cl)c(Nc3ccccc3S(=O)(=O)C(C)C)n2)c(OC(C)C)cc1C1CCNCC1 [CERITINIB] | -0.86 | -0.57 | -0.91 | -0.74 | -0.52 | -0.42 | -0.87 | -0.92 | -0.62 | -0.66 | -0.45 | -0.48 | -0.35 | -0.38 |  |  | -1 | -0.97 | -0.99 | -0.78 | Growth Rate (U2OS; [7]): -0.94; Growth Rate (U2OS; [8]): -0.82; Growth Rate (U2OS; [9]): -0.66; Growth Rate (U2OS; [10]): -0.58; Growth Rate (Fibroblast; [9]): -0.95; Growth Rate (Fibroblast; [5]): -0.6; Growth Rate (Fibroblast; [10]): -0.88; Growth Rate (Fibroblast; [6]): -0.52
